# Measurements as given in PMC6149712, “Anti-Allergic Activity of Monoacylated Ascorbic Acid 2-Glucosides” (Molecules : A Journal of Synthetic Chemistry and Natural …, 2017).
# Where a name gives a salt, the structure may show the parent alone.
# Columns and labels:
# Assay type in all cases: biochemical
# [1] = target: T1, hyaluronidase type IV-S from a bovine testis (Bos taurus, UniProt Q2YDK3); test: Morgan-Elson colorimetric hyaluronidase assay
# T1 construct: gene SPAM1
# T1 sequence (Q2YDK3 36-553): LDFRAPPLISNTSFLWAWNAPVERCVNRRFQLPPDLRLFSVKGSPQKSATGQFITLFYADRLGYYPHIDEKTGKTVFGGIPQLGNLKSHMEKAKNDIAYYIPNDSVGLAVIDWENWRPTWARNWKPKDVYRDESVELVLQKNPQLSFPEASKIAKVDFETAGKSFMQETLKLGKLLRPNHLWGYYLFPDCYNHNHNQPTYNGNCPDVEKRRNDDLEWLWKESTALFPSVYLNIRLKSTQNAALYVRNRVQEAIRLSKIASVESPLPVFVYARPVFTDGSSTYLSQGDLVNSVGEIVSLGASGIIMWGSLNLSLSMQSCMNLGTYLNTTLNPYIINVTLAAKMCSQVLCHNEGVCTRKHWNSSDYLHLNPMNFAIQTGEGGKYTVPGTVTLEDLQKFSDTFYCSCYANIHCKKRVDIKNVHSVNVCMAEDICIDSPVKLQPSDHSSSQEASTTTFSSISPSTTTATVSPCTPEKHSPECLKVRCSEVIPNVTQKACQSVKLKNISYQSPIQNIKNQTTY
# [2] = target: T1, hyaluronidase type IV-S from a bovine testis; test: Morgan-Elson colorimetric hyaluronidase assay; remark: listed apart in the source
# [3] = target: T1, hyaluronidase type IV-S from a bovine testis; test: Morgan-Elson colorimetric hyaluronidase assay, positive control
IC50 [2] [µM],SMILES,Morgan-Elson colorimetric hyaluronidase assay [1],also measured
–,CCCCCCCCCCCCCC(=O)OC[C@H](O)[C@H]1OC(=O)C(O[C@H]2O[C@H](CO)[C@@H](O)[C@H](O)[C@H]2O)=C1O [6-sMyri-AA-2G],6-sMyri-AA-2G and 6-sPalm-AA-2G significantly inhibited the activity more than 6-sDode-AA-2G,–
194,"CCCCCCCCCCCCCCCC(=O)OC[C@H](O)[C@H]1OC(=O)C(O)=C1O [6-Palm-AA, 6-O-palmitoyl-L-AA]",–,–
–,"O=C(O)c1cc(=O)c2c(OCC(O)COc3cccc4oc(C(=O)O)cc(=O)c34)cccc2o1 [DSCG, Cromolyn sodium salt]",–,"Morgan-Elson colorimetric hyaluronidase assay, positive control [3]: Cromolyn sodium salt (DSCG), which is used clinically as an anti-allergy drug, was used as a positive control."
22,"CCCCCCCCCCCCCCCC(=O)OC[C@H](O)[C@H]1OC(=O)C(O[C@H]2O[C@H](CO)[C@@H](O)[C@H](O)[C@H]2O)=C1O [6-sPalm-AA-2G, 2-O-α-D-Glucopyranosyl-6-O-hexadecanoyl-L-ascorbic acid]",–,–
–,CCCCCCCC(CCCCCCC)C(=O)OC[C@H](O)[C@H]1OC(=O)C(O[C@H]2O[C@H](CO)[C@@H](O)[C@H](O)[C@H]2O)=C1O [6-bPalm-AA-2G],6-bMyri-AA-2G and 6-bPalm-AA-2G significantly inhibited the activity more than 6-bDode-AA-2G,–
–,CCCCCCC(CCCCCC)C(=O)OC[C@H](O)[C@H]1OC(=O)C(O[C@H]2O[C@H](CO)[C@@H](O)[C@H](O)[C@H]2O)=C1O [6-bMyri-AA-2G],6-bMyri-AA-2G and 6-bPalm-AA-2G significantly inhibited the activity more than 6-bDode-AA-2G,–
25,"CCCCCCCCCCCCCCCC(=O)OC[C@H](O)[C@H]1OC(=O)C(O[C@@H]2O[C@H](CO)[C@@H](O)[C@H](O)[C@H]2O)=C1O [6-sPalm-AA-2βG, 2-O-β-D-glucopyranosyl-6-O-hexadecanoyl-L-ascorbic acid]",–,–
